{
  "source": "paper PMC10216263",
  "about": "“Favorable Preclinical Pharmacological Profile of a Novel Antimalarial Pyrrolizidinylmethyl Derivative of 4-amino-7-chloroquinoline with Potent In Vitro and In Vivo Activities” (Biomolecules, 2023)",
  "key": {"[1]": {"system": "P. falciparum V1-S (CQ-R)", "experiment": "In vitro antimalarial activity, [3H]-hypoxanthine incorporation (LSHTM)", "assay_type": "cell-based", "settings": "Plasmodium falciparum; 72 h, [3H]-hypoxanthine incorporation, mean of 3 experiments; read-out: P. falciparum IC50 nM, V1-S (CQ-R)"}, "[2]": {"system": "P. falciparum IPC5202 (ARM-R)", "experiment": "microbe, parasite or virus in culture", "assay_type": "cell-based", "experimental": "(§1) The strains D10 and 3D7 (CQ-Sensitive), and V1-S (CQ, pyrimethamine and cycloguanil resistant), K1 (CQ and PYR resistant), W2 and FCR3 (CQ-Resistant), TM90C2A (CQ, MQ, PYR and ATQ resistant) and IPC 5202 (MR4-1240, artemisinin-resistant, K13 mutation, and R539T) of Pf were cultured in vitro as described by Trager and Jensen with minor modifications. Briefly, parasites were maintained at 5% hematocrit (human type A-positive red blood cells) in RPMI 1640 (EuroClone, S.p.A. Milan, Italy) medium with the addition of 10% heat inactivate human serum or 1% AlbuMax (In vitrogen, Milan, Italy), 20 mM Hepes and 2 mM glutamine (Euroclone), at 37 °C in a standard gas mixture consisting of 1–3% O2, 5% CO2, and 92–94% N2.\n(§2) Compounds were dissolved in either water or DMSO and then diluted with medium to achieve the required concentrations (final non-toxic DMSO concentration <1%). Asynchronous cultures of Pf with parasitaemia of 1–1.5% and 1% final hematocrit were aliquoted into 96-well flat-bottom microplates (Corning, Glendale, AZ, USA) with serial dilutions of test compounds and incubated for 72 h at 37 °C. Parasite growth was determined spectrophotometrically (OD650) by measuring the activity of the parasite lactate dehydrogenase (pLDH) according to a modified version of the method of Makler in control and drug-treated cultures."}, "[3]": {"system": "all the Pf strains tested", "experiment": "In vitro antimalarial activity, summary over all Pf strains tested", "assay_type": "cell-based, P. falciparum", "settings": "for IC50: Plasmodium falciparum", "experimental": "as §1, §2"}, "[4]": {"system": "P. chabaudi AS", "experiment": "Four-day suppressive Peters' test, oral", "assay_type": "in vivo, P. chabaudi in CD1 mice", "settings": "once a day for 4 days, parasitemia day 4, CD1 mice", "experimental": "Groups of five CD1 mice were inoculated i.v., with 4 × 10^6 infected erythrocytes/mice. Compounds, dissolved in standard suspending formula (SSV) (0.5% sodium carboxymethylcellulose, 0.5% benzyl alcohol, 0.4% Tween 80, and 0.9% NaCl), were administered once a day for 4 days via oral gavage, starting two hours post-infection. […] Parasitemia was evaluated using microscopic examination of Giemsa-stained blood films taken on day four, processed using MICROSOFT® EXCEL spreadsheets (Microsoft Corp., Redmond, WA, USA), and expressed as percentages of inhibition from the arithmetic mean parasitemia of each group in relation to the untreated group. ED50 and ED90 values were calculated using GraphPad Prism 6 (GraphPad Software Inc., La Jolla, CA, USA)."}, "[5]": {"experiment": "Intrinsic clearance in hepatocytes", "assay_type": "in vitro ADME", "experimental": "(§3) An automatic liquid handling system (Multiprobe II EX, Packard) was used for sampling. At 0, 10, 20, 30, 60 and 90 min, […] aliquots of the incubates were taken and added with […] of ice-cold ACN and […] of 1 µM warfarin in ACN (internal standard), and samples centrifuged at 2000 rpm for 20 min. The analysis of supernatant was conducted using LC-MS/MS. MG3 was incubated in the medium under the same conditions to evaluate the chemical stability; 7-ethoxycoumarin (7-ETC) 1 µM and 7-hydroxycoumarin (7-HC) 30 µM were utilized as positive controls for Phase I and Phase II activities. […] Half-life and CLint were determined from the concentration (counts) remaining at the different sampling points using the LC-MS/MS method. The slope was calculated using linear regression analysis of the curve (natural logarithmic area of the compound remaining against the time) and converted into the half-life (t1/2) and CLint expressed as µL/min/million cells and mL/min/kg, respectively."}, "[6]": {"system": "dog hepatocytes", "experiment": "Intrinsic clearance in hepatocytes", "assay_type": "in vitro ADME", "settings": "1 µM", "experimental": "as §3"}, "[7]": {"system": "human hepatocytes", "experiment": "Intrinsic clearance in hepatocytes", "assay_type": "in vitro ADME", "settings": "1 µM", "experimental": "as §3"}, "[8]": {"system": "monkey hepatocytes", "experiment": "Intrinsic clearance in hepatocytes", "assay_type": "in vitro ADME", "settings": "1 µM", "experimental": "as §3"}, "[9]": {"system": "mouse hepatocytes", "experiment": "Intrinsic clearance in hepatocytes", "assay_type": "in vitro ADME", "settings": "1 µM", "experimental": "as §3"}, "[10]": {"system": "rat hepatocytes", "experiment": "Intrinsic clearance in hepatocytes", "assay_type": "in vitro ADME", "settings": "1 µM", "experimental": "as §3"}, "[11]": {"system": "P. falciparum 3D7 (CQ-S)", "experiment": "In vitro combination study (isobologram, ∑FIC)", "assay_type": "cell-based"}, "[12]": {"system": "P. falciparum W2 (CQ-R)", "parameters": "method as in PMID 18538567", "settings": "72 h incubation, pLDH method, mean of 3 experiments; cited from earlier work"}, "[13]": {"system": "Salmonella typhimurium TA98", "experiment": "Bacterial Reverse Mutation Assay", "settings": "TA 98, with metabolic activation", "description": "(§4) using the preincubation method (30 min, 37°C) with and without phenobarbital-5,6-benzoflavone induced\n(§5) MG3 was dissolved in distilled water (H2O) at\n(§6) the maximum concentration of 40 mg/mL and tested in a preliminary range-finding test in all strains of\n(§7) metabolic activation to determine the toxicity of the compound."}, "[14]": {"system": "Escherichia coli WP2 uvrA", "experiment": "Bacterial Reverse Mutation Assay", "settings": "with metabolic activation", "description": "as §4, §5, §6, §7"}},
  "note": "Several values for one entry are separate records, joined by “and”; a condition that tells them apart may be missing. Equal values may be shown once. Read-outs that look alike come from different tables or passages of the source.",
  "data": [
    {"compound": "Clc1ccc2c(NCC34CCCN3CCC4)ccnc2c1", "note": "[MG3, 7-Chloro-N-((hexahydro-1H-pyrrolizin-7a-yl)methyl)quinolin-4-amine]", "values": [
      {"measurement": "IC50", "setting": "[1]", "result": 25.7, "unit": "nM"},
      {"measurement": "IC50", "setting": "[2]; Plasmodium falciparum, 72 h, read-out: P. falciparum IC50 nM, IPC5202 (ARM-R), 72 h incubation, pLDH method", "result": "< 15", "unit": "nM"},
      {"measurement": "IC50", "setting": "[2]; read-out: P. falciparum IC50 nM, IPC5202 (ARM-R), 72 h incubation, pLDH method", "result": "10 nM and 10.7 nM"},
      {"measurement": "activity fold lower than that of ASN or DHA", "setting": "[3]; P. falciparum strains", "result": "5–6 fold"},
      {"measurement": "IC50", "setting": "[3]; read-out: mean IC50 against all the Pf strains tested", "result": 20.9, "unit": "nM"},
      {"measurement": "IC50", "setting": "[3]; range over strains, read-out: IC50 range against all the Pf strains tested", "result": "12 to 30", "unit": "nM"},
      {"measurement": "ED50", "setting": "[4]; Plasmodium chabaudi, 96 h, read-out: ED50 (95% CI) Mean", "result": 4.69, "unit": "mg/kg"},
      {"measurement": "ED90 (95% CI) Mean", "setting": "[4]", "result": "9.80 (8.86–10.6) mg/kg"},
      {"measurement": "CLint scaled at 1 µM", "setting": "[5]; dog hepatocytes", "result": 111, "unit": "mL/min/kg"},
      {"measurement": "CLint scaled at 1 µM", "setting": "[5]; human hepatocytes", "result": 4.9, "unit": "mL/min/kg"},
      {"measurement": "CLint scaled at 1 µM", "setting": "[5]; monkey hepatocytes", "result": 44, "unit": "mL/min/kg"},
      {"measurement": "CLint scaled at 1 µM", "setting": "[5]; mouse hepatocytes", "result": 196, "unit": "mL/min/kg"},
      {"measurement": "CLint scaled at 1 µM", "setting": "[5]; rat hepatocytes", "result": 51, "unit": "mL/min/kg"},
      {"measurement": "Half/life", "setting": "[6]", "result": 0.8, "unit": "h"},
      {"measurement": "Half/life", "setting": "[7]", "result": 5.67, "unit": "h"},
      {"measurement": "Half/life", "setting": "[8]", "result": 1.43, "unit": "h"},
      {"measurement": "Half/life", "setting": "[9]", "result": 0.517, "unit": "h"},
      {"measurement": "Half/life", "setting": "[10]", "result": 1.08, "unit": "h"},
      {"measurement": "Mean ∑FIC50 (95% CI)", "setting": "[11]; in combination with ASN, 3D7, IC50 level", "result": "1.43 (1.30 – 1.55)"},
      {"measurement": "Mean ∑FIC50 (95% CI)", "setting": "[11]; in combination with DHA, 3D7, IC50 level", "result": "1.49 (1.33 – 1.65)"},
      {"measurement": "Mean ∑FIC50 (95% CI)", "setting": "[11]; in combination with RKA-182, 3D7, IC50 level", "result": "1.45 (1.17 – 1.73)"},
      {"measurement": "interaction (isobologram)", "setting": "[11]; in combination with azitromycin, 3D7 (CQ-S)", "result": "additive"},
      {"measurement": "IC50", "setting": "[12]", "result": 28.9, "unit": "nM"},
      {"measurement": "fold increase value (ratio treated/solvent revertant numbers)", "setting": "[13]; I° Exp., 1000 µg/plate", "result": 1.1},
      {"measurement": "fold increase value (ratio treated/solvent revertant numbers)", "setting": "[13]; I° Exp., 62.5 g/plate", "result": 1.1},
      {"measurement": "fold increase value (ratio treated/solvent revertant numbers)", "setting": "[13]; I° Exp., 125 g/plate", "result": 1.2},
      {"measurement": "fold increase value (ratio treated/solvent revertant numbers)", "setting": "[13]; I° Exp., 250 g/plate", "result": 1.4},
      {"measurement": "fold increase value (ratio treated/solvent revertant numbers)", "setting": "[13]; I° Exp., 500 g/plate", "result": 1.5},
      {"measurement": "fold increase value (ratio treated/solvent revertant numbers)", "setting": "[13]; Range finding, 1000 µg/plate", "result": 1.0},
      {"measurement": "fold increase value (ratio treated/solvent revertant numbers)", "setting": "[13]; Range finding, 1.95 g/plate", "result": 0.9},
      {"measurement": "fold increase value (ratio treated/solvent revertant numbers)", "setting": "[13]; Range finding, 3.9 g/plate", "result": 0.9},
      {"measurement": "fold increase value (ratio treated/solvent revertant numbers)", "setting": "[13]; Range finding, 7.81 g/plate", "result": 1.5},
      {"measurement": "fold increase value (ratio treated/solvent revertant numbers)", "setting": "[13]; Range finding, 15.63 g/plate", "result": 1.2},
      {"measurement": "fold increase value (ratio treated/solvent revertant numbers)", "setting": "[13]; Range finding, 31.25 g/plate", "result": 1.0},
      {"measurement": "fold increase value (ratio treated/solvent revertant numbers)", "setting": "[13]; Range finding, 62.5 g/plate", "result": 1.3},
      {"measurement": "fold increase value (ratio treated/solvent revertant numbers)", "setting": "[13]; Range finding, 125 g/plate", "result": 1.3},
      {"measurement": "fold increase value (ratio treated/solvent revertant numbers)", "setting": "[13]; Range finding, 250 g/plate", "result": 1.2},
      {"measurement": "fold increase value (ratio treated/solvent revertant numbers)", "setting": "[13]; Range finding, 500 g/plate", "result": 1.2},
      {"measurement": "fold increase value (ratio treated/solvent revertant numbers)", "setting": "[14]; I° Exp., 62.5 µg/plate", "result": 1.4},
      {"measurement": "fold increase value (ratio treated/solvent revertant numbers)", "setting": "[14]; I° Exp., 125 µg/plate", "result": 1.4},
      {"measurement": "fold increase value (ratio treated/solvent revertant numbers)", "setting": "[14]; I° Exp., 250 µg/plate", "result": 1.5},
      {"measurement": "fold increase value (ratio treated/solvent revertant numbers)", "setting": "[14]; I° Exp., 500 µg/plate", "result": 0.8},
      {"measurement": "fold increase value (ratio treated/solvent revertant numbers)", "setting": "[14]; I° Exp., 1000 µg/plate", "result": 0.7},
      {"measurement": "fold increase value (ratio treated/solvent revertant numbers)", "setting": "[14]; Range finding, 1.95 µg/plate", "result": 1.0},
      {"measurement": "fold increase value (ratio treated/solvent revertant numbers)", "setting": "[14]; Range finding, 3.9 µg/plate", "result": 0.9},
      {"measurement": "fold increase value (ratio treated/solvent revertant numbers)", "setting": "[14]; Range finding, 7.81 µg/plate", "result": 0.9},
      {"measurement": "fold increase value (ratio treated/solvent revertant numbers)", "setting": "[14]; Range finding, 15.63 µg/plate", "result": 0.7},
      {"measurement": "fold increase value (ratio treated/solvent revertant numbers)", "setting": "[14]; Range finding, 31.25 µg/plate", "result": 0.8},
      {"measurement": "fold increase value (ratio treated/solvent revertant numbers)", "setting": "[14]; Range finding, 62.5 µg/plate", "result": 0.7},
      {"measurement": "fold increase value (ratio treated/solvent revertant numbers)", "setting": "[14]; Range finding, 125 µg/plate", "result": 0.9},
      {"measurement": "fold increase value (ratio treated/solvent revertant numbers)", "setting": "[14]; Range finding, 250 µg/plate", "result": 0.7},
      {"measurement": "fold increase value (ratio treated/solvent revertant numbers)", "setting": "[14]; Range finding, 500 µg/plate", "result": 0.7},
      {"measurement": "fold increase value (ratio treated/solvent revertant numbers)", "setting": "[14]; Range finding, 1000 µg/plate", "result": 0.8}
    ]}
  ]
}
